Assay [1] has as its system Plasmodium falciparum. Description: Antimalarial activity against Plasmodium falciparum 3D7 infected in human erythrocytes after 72 hrs by SYBR green dye fluorescence assay. The format is functional, organism-based. The note with it: 3D7, 72 h.
For assay [2], the system named is Human betaherpesvirus 5. Description: Potency index, ratio of gancyclovir EC50 to compound EC50 for GFP-fused Human cytomegalovirus AD169 infected in primary HFF. The format is functional.
In assay [3] the test system is ADR5000 cell line. Description: Cytotoxicity against human CEM/ADR5000 cells over-expressing P-gp assessed as reduction in cell viability after 72 hrs by resazurin dye based assay. Type of assay: functional. In general terms: The colour change of resazurin is a common sign of viable cells or microbes.
Assay [4] deals with CCRF-CEM. The assay can be described thus: Cytotoxicity against human CCRF-CEM cells assessed as reduction in cell viability after 72 hrs by resazurin dye based assay. Type of assay: functional.
Assay [5] has as its system ADR5000 cell line. The assay can be described thus: Potency index, ratio of doxorubicin EC50 to compound EC50 for human CEM/ADR5000 cells over-expressing P-gp. The format is functional.
Assay [6] relates to Human betaherpesvirus 5. Description: Antiviral activity against GFP-fused Human cytomegalovirus AD169 infected in primary HFF. The conditions noted are these: Human betaherpesvirus 5, AD169, HFF. The format is functional, organism-based.
Assay [7] relates to Plasmodium falciparum. The assay can be described thus: Potency index, ratio of artesunic acid EC50 to compound EC50 for Plasmodium falciparum 3D7 infected in human erythrocytes. Type of assay: functional.
Setting [8] is: Homo sapiens, ADR5000, 72 h, read-out: EC50.
Where [9] appears, read: Homo sapiens, CCRF-CEM, 72 h, read-out: EC50.

Bounds are passed on as bounds.

As usually defined, the EC50 is the concentration at which the effect is half-maximal. Regarding `COc1ccc(-c2cc3cc(CCCO[C@H]4O[C@@H]5O[C@@]6(C)CC[C@H]7[C@H](C)CC[C@@H]([C@H]4C)[C@@]57OO6)cc(OC)c3o2)cc1OC`, the EC50 in assay [1] was determined as 6.5 nM; in assay [3] (setting [8]), 630 nM; in assay [4] (setting [9]), 72 nM; in assay [6] it was 130 nM. For the same molecule, the “Ratio EC50” value is 20 in assay [2] and “<=104” in assay [5].
`COc1cc(CCCOC(=O)CCCc2ccc(N(CCCl)CCCl)cc2)cc2cc(-c3ccc4c(c3)OCO4)oc12`: the EC50 in assay [1] is 23200 nM; in assay [6] it was 2900 nM.
Turning to `COc1ccc(-c2cc3cc(CCCO)cc(OC)c3o2)cc1OC`, the EC50 in assay [1] was 26500 nM; in assay [3] (adr5000), “Not Active”; in assay [4] (ccrf-cem) it was “Not Active”; in assay [6], 1280 nM.
For `C[C@H]1[C@H](OC(=O)CCC(=O)O)O[C@@H]2O[C@@]3(C)CC[C@H]4[C@H](C)CC[C@@H]1[C@@]24OO3` [ARTESUNATE], the EC50 in assay [1] stood at 9.7 nM; in assay [3] (setting [8]), 189 nM; in assay [4] (setting [9]), 69 nM; in assay [6], 5410 nM.
Regarding `COc1cc(CCCO[C@H]2O[C@@H]3O[C@@]4(C)CC[C@H]5[C@H](C)CC[C@@H]([C@H]2C)[C@@]35OO4)cc2cc(-c3ccc4c(c3)OCO4)oc12`, the EC50 turned out to be 28.3 nM in assay [1], 400 nM in assay [3] (setting [8]), 99 nM in assay [4] (setting [9]) and 170 nM in assay [6]. Also, the “Ratio EC50” value in assay [5] is “<=104”.
In the case of `COc1cccc2c1C(=O)c1c(O)c3c(c(O)c1C2=O)C[C@@](O)(C(=O)CO)C[C@@H]3O[C@H]1C[C@H](N)[C@H](O)[C@H](C)O1` [DOXORUBICIN], the EC50 in assay [3] (setting [8]) turned out to be 41500 nM; in assay [4] (setting [9]) it was 15 nM.
In assay [6], `Nc1nc2c(ncn2COC(CO)CO)c(=O)[nH]1` [GANCICLOVIR] had an EC50 of 2600 nM.
With `C[C@H]1[C@H](OC(=O)CCC(=O)OCC#CCOC(=O)CCC(=O)O[C@@H]2O[C@@H]3O[C@@]4(C)CC[C@H]5[C@H](C)CC[C@@H]([C@H]2C)[C@@]35OO4)O[C@@H]2O[C@@]3(C)CC[C@H]4[C@H](C)CC[C@@H]1[C@@]24OO3`, the EC50 was determined as 3.8 nM in assay [1] and 940 nM in assay [6]. For the same molecule, the “Ratio EC50” value in assay [2] worked out at 6; in assay [7], 2.
Consider `COc1cc(CCCOC(=O)CCC(=O)O[C@@H]2O[C@@H]3O[C@@]4(C)CC[C@H]5[C@H](C)CC[C@@H]([C@H]2C)[C@@]35OO4)cc2cc(-c3ccc4c(c3)OCO4)oc12`, for which the values for the EC50 in assay [3] (setting [8]), in assay [4] (setting [9]) and in assay [6] were 1120 nM, 180 nM and 870 nM, respectively. Moreover, the “Ratio EC50” value in assay [5] is listed as “<=104”.
In the case of `CC1=CC(=O)C(C(C)C)=CC1=O` [THYMOQUINONE], the EC50 in assay [1] was > 80000 nM; in assay [3] (setting [8]), 300 nM; in assay [4] (setting [9]), 300 nM; in assay [6], > 10000 nM.
As to `C[C@@H]1CC[C@H]2[C@@H](C)C(=O)O[C@@H]3O[C@@]4(C)CC[C@@H]1[C@]32OO4` [ARTEMISININ], the EC50 in assay [3] (setting [8]) was found to be 26900 nM; in assay [4] (setting [9]), 36900 nM.
With `C[C@H]1[C@@H](O)O[C@@H]2O[C@@]3(C)CC[C@H]4[C@H](C)CC[C@@H]1[C@@]24OO3` [ARTENIMOL], the EC50 in assay [1] is 2.4 nM; in assay [3] (setting [8]) it was 265 nM; in assay [4] (setting [9]), 85 nM; in assay [6], > 10000 nM.
For `COc1cc(CCCO)cc2cc(-c3ccc4c(c3)OCO4)oc12` [EGONOL], the concentration for a half-maximal effect (EC50) in assay [1] was determined as 7500 nM; in assay [3] (setting [8]) it was 26800 nM; in assay [4] (setting [9]), 24700 nM; in assay [6], 2380 nM.
In turn, `CCN(CC)CCCC(C)Nc1ccnc2cc(Cl)ccc12` (stereo unspecified) [CHLOROQUINE] displayed an EC50 in assay [1] of 9.8 nM.
As for `COc1cc(CC/C=N/C2=C(C)C(=O)C=C(C(C)C)C2=O)cc2cc(-c3ccc4c(c3)OCO4)oc12`, the EC50 in assay [1] turned out to be 1190 nM; in assay [3] (setting [8]) it was 17400 nM; in assay [4] (setting [9]) it was 43700 nM. For the same molecule, in assay [5], the “Ratio EC50” value is reported as “<=104”.
Consider `COc1cc(CCCOC(=O)C[C@H]2O[C@@H]3O[C@@]4(C)CC[C@H]5[C@H](C)CC[C@@H]([C@H]2C)[C@@]35OO4)cc2cc(-c3ccc4c(c3)OCO4)oc12`, for which the EC50 in assay [1] amounted to 13.3 nM; in assay [3] (setting [8]) it was 582 nM; in assay [4] (setting [9]) it was 568 nM; in assay [6], 240 nM. For the same molecule, the “Ratio EC50” value in assay [5] is recorded as “<=104”.
